According to patent US8012950B2, “Method to diagnose and treat degenerative joint disease” (Wisconsin Alumni Research Foundation, priority 2003, dated 2011):

Tests used:
[1] = target: T1, recombinant human cathepsin K (Homo sapiens, UniProt P43235); test: Cathepsin K inhibition assay; format: biochemical
T1 sequence (P43235 115-329): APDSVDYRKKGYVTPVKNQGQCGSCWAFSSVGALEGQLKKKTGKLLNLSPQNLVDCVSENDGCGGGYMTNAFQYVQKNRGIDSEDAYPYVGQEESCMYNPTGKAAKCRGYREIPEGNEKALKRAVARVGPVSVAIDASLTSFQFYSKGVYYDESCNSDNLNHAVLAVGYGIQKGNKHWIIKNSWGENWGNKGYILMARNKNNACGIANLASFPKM
Description: Cathepsin K Inhibition Assay: The cathepsin K inhibition assay was modified from a previously described protocol (Votta et al., 1997). Doxycycline, tetracycline and minocycline were dissolved in 0.1 M Tris/0.15M NaCl buffer, pH 7.4. COL-3 was dissolved in 100% ethanol. NPI-3469 was dissolved in dimethylsulphoxide. Ten microliters of doxycycline, tetracycline, minocycline, COL-3, and NPI-3469 were dissolved in buffer and an equal volume of 0.125 μM rh-human cathepsin K standard dissolved in 100 mM sodium acetate buffer, pH 5.5 were mixed in a 96-well microplate and incubated at approximately 25° C. (room temperature) for 15 minutes. Concentrations of the candidate inhibiting compound in the initial mixture were prepared at 10^-7 to 10^-3M. Then 180 μl of an MCA substrate buffer containing 100 mM sodium acetate buffer pH 5.5, 2.5 mM dithiothreitol, 2.5 mM EDTA, and 5 μ[…] substrate (Peptides International, Louisville, KY) was added to the mixture. The microplate was incubated for 60 minutes at approximately 25° C. The fluorescence of each well was then determined using a fluorescent microplate reader set at 360 nm excitation/460 nm emission. Data Analysis: The residual collagenolytic enzyme activity as a percentage of the control was calculated for each concentration of each inhibiting compound. All dilutions of each inhibiting compound were assayed in duplicate and a mean value was calculated for each well.

[2] = target: T2, recombinant human MMP-13 (collagenase 3) (Homo sapiens, UniProt P45452); test: Matrix metalloproteinase-13 inhibition assay; format: biochemical; settings: at 1 mM concentrations
T2 construct: purchased Chondrex, Inc., Redmond, Wash; Cat. No. 3003
Description: Matrix Metalloproteinase-13 Inhibition Assay: The MMP-13 (collagenase 3) inhibition assay used a commercially available kit (Chondrex, Inc., Redmond, Wash., Cat. No. 3003) The recombinant human MMP-13 (collagenase 3) was activated by adding 5 μl of a 10 μg/ml solution of recombinant human MMP-13, 90 μl of sample dilution and reaction buffer (Solution B), and 5 μl of p-aminophenylmercuric acetate to each well of a microplate. The microplate was then incubated for 60 minutes at 35° C. Ten microliters of proteinase inhibitor was then added to each well to neutralize non-collagenolytic proteases in the sample solutions. Twenty five microliters of doxycycline, tetracycline, minocycline, COL-3, NPI-3469 (dissolved in buffer as previously described) and 25 μl of solution B were added to each well. Concentrations of the candidate inhibiting compounds in the initial mixture were prepared at 10^−7 to 10^−3 M using solution B. After the microplate was incubated at approximately 25° C. for 30 minutes, 10 μl of stop solution was added to each well and the fluorescence of each well was then determined using a fluorescent microplate reader set at 360 nm excitation/460nm emission. Data Analysis: The residual collagenolytic enzyme activity as a percentage of the control was calculated for each concentration of each inhibiting compound. All dilutions of each inhibiting compound were assayed in duplicate and a mean value was calculated for each well.

[3] = Pharmacokinetic study of oral NPI 3469 in the dog; format: in vivo; settings: 4 beagles, single oral dose 1 mg/kg
Description: Pharmacokinetics of oral NPI 3469 (NAEJA Pharmaceuticals, Edmonton, Alberta, Canada) in the dog. We have conducted a pharmokinetic study in 4 beagles using a single oral dose of NPI 3469 given at 1 mg/kg and pharmacokinetic parameters have been determined.

| SMILES | inhibition of cathepsin K ([1]; at 1 μm) | inhibition of cathepsin K ([1]; at 10 μm) | inhibition of matrix metalloproteinase-13 [2] | inhibition of matrix metalloproteinase-13 (in words) [2] | adverse effects during the treatment period [3] |
| --- | --- | --- | --- | --- | --- |
| CC(C)C[C@H](NC(=O)OCc1ccccc1)C(=O)NC1=CNC2(CCCC2)NC1=O [NPI-3469, 5-(carbobenzoxy-L-leucyl)amino-2,2-tetramethylene-2,3-dihydro-1H-pyrimidin-4-one] | 47% | 75% |  | did not inhibit | No adverse effects |
| CN(C)[C@@H]1C(O)=C(C(N)=O)C(=O)[C@@]2(O)C(O)=C3C(=O)c4c(O)cccc4[C@@](C)(O)[C@H]3C[C@@H]12 [tetracycline] |  |  | 49% |  |  |

Second part, led by results:

| inhibition of cathepsin K ([1]; at 1 μm) | inhibition of cathepsin K ([1]; at 10 μm) | inhibition of matrix metalloproteinase-13 [2] | inhibition of matrix metalloproteinase-13 (in words) [2] | SMILES | adverse effects during the treatment period [3] |
| --- | --- | --- | --- | --- | --- |
| 25% | 56% | 57% |  | NC(=O)C1=C(O)CC2CC3Cc4cccc(O)c4C(=O)C3=C(O)C2(O)C1=O (stereo not shown) [COL-3, 4-dedimethylaminosancycline] |  |
|  |  |  | did not inhibit | C[C@H]1c2cccc(O)c2C(=O)C2=C(O)[C@]3(O)C(=O)C(C(N)=O)=C(O)[C@@H](N(C)C)[C@@H]3[C@@H](O)[C@@H]21 [doxycycline] |  |
|  |  | 85% |  | CN(C)c1ccc(O)c2c1C[C@H]1C[C@H]3[C@H](N(C)C)C(O)=C(C(N)=O)C(=O)[C@@]3(O)C(O)=C1C2=O [minocycline] |  |
